This note sets out measurements from PubChem BioAssay (NCI).

Test systems include COLO 205 colon; EKVX NSCLC; HCT-15 colon; HOP-92 NSCLC; K-562 leukemia; LOX IMVI melanoma; MDA-MB-231 breast; RPMI-8226 leukemia; RXF 393 renal; SF-268 CNS.
Holding throughout (assay): NCI tumour cell line growth inhibition, 48 h

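A five-concentration, 48-hour dose response in 96-well plates underlies each endpoint, interpolated linearly between surrounding concentrations. GI50 is the concentration that inhibits growth by half. TGI: concentration producing complete growth inhibition.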 Some results are limits rather than exact numbers.

With `CCn1c(-c2nonc2N)nc2cnc(Oc3cccc(NC(=O)c4ccc(OCCN5CCOCC5)cc4)c3)cc21`, the GI50 was 3.34 µM in the assay with COLO 205 colon; 0.752 µM with EKVX NSCLC; 2.16 µM in the assay on HCT-15 colon; 2.5 nM in the assay on HOP-92 NSCLC; 7.38 µM with K-562 leukemia; 3.1 µM in the assay with LOX IMVI melanoma. Moreover, the GI50 in the assay on MDA-MB-231 breast was 1.65 µM; with RPMI-8226 leukemia, 4.28 µM; with RXF 393 renal, 1.31 µM; in the assay with SF-268 CNS, 0.724 µM. For the same compound, the TGI with COLO 205 colon, in the assay on EKVX NSCLC, in the assay with HCT-15 colon, in the assay on HOP-92 NSCLC, with K-562 leukemia and in the assay with LOX IMVI melanoma was over 25 µM each time. Moreover, the TGI was over 25 µM with MDA-MB-231 breast, over 25 µM in the assay on RPMI-8226 leukemia, 12.9 µM with RXF 393 renal and over 25 µM in the assay with SF-268 CNS.

As for `COc1cccc(C2CC(C)(O)Oc3cc4c(cc32)OCO4)c1` (stereo not given), the TGI in the assay with COLO 205 colon was 43.1 µM; with EKVX NSCLC, over 100 µM; with HCT-15 colon, 83.3 µM; in the assay with HOP-92 NSCLC it was 93.3 µM; in the assay on K-562 leukemia, over 100 µM; in the assay on LOX IMVI melanoma it was over 100 µM. Besides, the TGI is 96.2 µM with MDA-MB-231 breast, 66.2 µM in the assay with RPMI-8226 leukemia, over 100 µM in the assay on RXF 393 renal and over 100 µM in the assay with SF-268 CNS.

As for `CC(NC(=O)c1ccc(Cl)c(Cl)c1)c1ccc(-c2ccccc2)cc1` (stereo not given), the TGI with COLO 205 colon, with EKVX NSCLC, in the assay on HCT-15 colon, with HOP-92 NSCLC, in the assay on K-562 leukemia and with LOX IMVI melanoma was over 100 µM in each case. For the same compound, the TGI was over 100 µM in the assay with MDA-MB-231 breast, over 100 µM in the assay with RPMI-8226 leukemia, 28 µM in the assay with RXF 393 renal and over 100 µM in the assay on SF-268 CNS.

Take `C=C(C)[C@@H]1CC[C@]2(C(=O)OC)CC[C@]3(C)[C@H](CC[C@@H]4[C@@](C)(CCc5nn[nH]n5)[C@H](C(=C)C)CC[C@]43C)[C@@H]12`: the GI50 with COLO 205 colon was 19.7 µM; in the assay on EKVX NSCLC, 19.2 µM; in the assay on HCT-15 colon, 13.2 µM; with HOP-92 NSCLC, 8080 nM; with K-562 leukemia, 18.4 µM; in the assay on LOX IMVI melanoma, 16 µM. In addition, the GI50 in the assay with MDA-MB-231 breast was 15.5 µM; in the assay with RPMI-8226 leukemia, 4.07 µM; in the assay with RXF 393 renal, 15.7 µM; in the assay on SF-268 CNS, 15.7 µM. Also, the TGI in the assay on COLO 205 colon is 47.9 µM; in the assay with EKVX NSCLC, 61 µM; in the assay with HCT-15 colon it was 35.7 µM; in the assay on HOP-92 NSCLC, 22.3 µM; in the assay with K-562 leukemia, over 100 µM; in the assay with LOX IMVI melanoma, 29.5 µM. Further, the TGI with MDA-MB-231 breast was found to be 30.8 µM; in the assay with RPMI-8226 leukemia it was 29.8 µM; with RXF 393 renal, 30.1 µM; with SF-268 CNS, 34.9 µM.

Consider `CCOC(=O)c1sc2nc(=S)[nH]c(NC(N)=S)c2c1C`, for which the GI50 was 18.6 µM in the assay with COLO 205 colon; 2.49 µM in the assay on EKVX NSCLC; 16.7 µM with HCT-15 colon; 4580 nM in the assay on HOP-92 NSCLC; 28.3 µM in the assay on K-562 leukemia; 15.4 µM in the assay on LOX IMVI melanoma. For the same compound, the GI50 in the assay with MDA-MB-231 breast was 12.1 µM; in the assay with RPMI-8226 leukemia it was 18.4 µM; in the assay on RXF 393 renal, 19.1 µM; in the assay with SF-268 CNS, 17.8 µM. Besides, the TGI with COLO 205 colon was 48.4 µM; in the assay on EKVX NSCLC it was 30.6 µM; with HCT-15 colon it was 39.2 µM; in the assay on HOP-92 NSCLC it was 37.5 µM; with K-562 leukemia, over 100 µM; in the assay on LOX IMVI melanoma, 31 µM. Moreover, the TGI in the assay on MDA-MB-231 breast is 31.9 µM; with RPMI-8226 leukemia, 49.9 µM; in the assay with RXF 393 renal, 47.2 µM; in the assay on SF-268 CNS, 42.7 µM.

For the compound `CCCCCCCCCCCC1=NC(C)(C)CN1C(C)C`, the GI50 in the assay with COLO 205 colon was 1.77 µM; with EKVX NSCLC, 6.55 µM; in the assay on HCT-15 colon, 2.63 µM; in the assay on HOP-92 NSCLC it was 1190 nM; in the assay on K-562 leukemia, 1.94 µM; in the assay with LOX IMVI melanoma it was 2.32 µM. For the same compound, the GI50 in the assay with MDA-MB-231 breast was 3.67 µM; in the assay on RPMI-8226 leukemia, 1.44 µM; with RXF 393 renal, 2.17 µM; in the assay on SF-268 CNS it was 5.51 µM. Further, the TGI in the assay with COLO 205 colon was 3.15 µM; with EKVX NSCLC it was 21.1 µM; in the assay with HCT-15 colon, 8.76 µM; in the assay on HOP-92 NSCLC, 5.17 µM; in the assay with K-562 leukemia, 5.82 µM; with LOX IMVI melanoma, 6.85 µM. Further, the TGI was determined as 14 µM in the assay with MDA-MB-231 breast, 3.66 µM with RPMI-8226 leukemia, 5.33 µM in the assay on RXF 393 renal and 18.2 µM in the assay on SF-268 CNS.

Consider `COc1ccc(-c2nn3ncccc3c2-c2ccnc(Nc3ccc(F)c(F)c3)n2)cc1`, for which the GI50 in the assay with COLO 205 colon is 15.5 µM; with EKVX NSCLC, 5.06 µM; in the assay on HCT-15 colon, 8.77 µM; with HOP-92 NSCLC, 3990 nM; with K-562 leukemia, 6.57 µM; in the assay with LOX IMVI melanoma, 7.42 µM. Also, the GI50 with MDA-MB-231 breast was 9.1 µM; in the assay with RPMI-8226 leukemia, 14.7 µM; with RXF 393 renal, 7.45 µM; in the assay on SF-268 CNS, 14.2 µM. Further, the TGI with COLO 205 colon was over 25 µM; with EKVX NSCLC, over 22.7 µM; in the assay with HCT-15 colon it was over 25 µM; in the assay with HOP-92 NSCLC it was over 25 µM; in the assay on K-562 leukemia, over 25 µM; in the assay on LOX IMVI melanoma, over 25 µM. Besides, the TGI in the assay with MDA-MB-231 breast, in the assay with RPMI-8226 leukemia, in the assay with RXF 393 renal and in the assay with SF-268 CNS was over 25 µM each time.

In the case of `CCCCCCCCCCCC(c1ccccc1)[N+](C)(C)C` (stereo not given), the GI50 in the assay with COLO 205 colon was 0.825 µM; with EKVX NSCLC, 1.45 µM; with HCT-15 colon, 14.1 µM; with HOP-92 NSCLC it was 1060 nM; in the assay on K-562 leukemia, 0.673 µM; in the assay with LOX IMVI melanoma, 0.425 µM. In addition, the GI50 in the assay with MDA-MB-231 breast is 1.68 µM; in the assay with RPMI-8226 leukemia, 0.462 µM; with RXF 393 renal, 0.451 µM; with SF-268 CNS, 1.26 µM. Further, the TGI was determined as 2.2 µM with COLO 205 colon; 4.63 µM in the assay with EKVX NSCLC; 37 µM in the assay with HCT-15 colon; 2.86 µM with HOP-92 NSCLC; 4.09 µM in the assay with K-562 leukemia; 2.5 µM in the assay with LOX IMVI melanoma. The TGI came out at 4.25 µM with MDA-MB-231 breast, 1.92 µM with RPMI-8226 leukemia, 2.26 µM in the assay on RXF 393 renal and 2.61 µM in the assay with SF-268 CNS.
